# Literature values as cited in patent US20080253985A1, “Compositions for Lowering Serum Cholesterol and/or Triglycerides” (priority 2005, published 2008).
# Where two headings read alike, the source gives them in different places.
# What was measured:
# [1] = dose of 40 mg
# [2] = hoFH patients; ezetimibe 10 mg/day added to atorvastatin or simvastatin 80 mg/day
# [3] = clinical studies, dosages of 80 mg/day or greater
structure (smiles),measurement,setting,value
"O=C(NC1CCN(CCCCC2(C(=O)NCC(F)(F)F)c3ccccc3-c3ccccc32)CC1)c1ccccc1-c1ccc(C(F)(F)F)cc1 [BMS-201038, N-(2,2,2-Trifluorethyl)-9-[4-[4-[[[4′-(trifluoromethyl)[1,1′biphenyl]-2-Yl]carbonyl]amino]-1-piperidinyl]butyl]9H-fluorene-9-carboxamide]",adverse events,patients treated with 25 mg/day,"gastrointestinal disturbances, abnormalities in liver function, and hepatic steatosis"
"CC(C)c1c(C(=O)Nc2ccccc2)c(-c2ccccc2)c(-c2ccc(F)cc2)n1CCC(O)CC(O)CC(=O)O (centres unmarked) [atorvastatin, 7-[2-(4-fluorophenyl)-5-(1-methylethyl)-3-phenyl-4-(phenylcarbamoyl)-1H-pyrrol-1-yl]-3,5-dihydroxy-heptanoic acid]","patients achieving goal attainment, LDL <70 mg/dL",[1],23%
O=C1[C@H](CC[C@H](O)c2ccc(F)cc2)[C@@H](c2ccc(O)cc2)N1c1ccc(F)cc1 [ezetimibe],total reduction of LDL-C levels,[2],27%
"Cc1cc(C)c2c3ccccc3n(Cc3ccc([C@@H](C(=O)N[C@H](CO)c4ccccc4)C4CCCC4)cc3)c2n1 [implitapide, (2S)-2-cyclopentyl-2-[4-[(2,4-dimethyl-9H-pyrido[2,3-b]indol-9-yl)methyl]phenyl]-N-[(1S)-2-hydroxy-1-phenylethyl]ethanamide]",adverse events,[3],"gastrointestinal disturbances, abnormalities in liver function, and hepatic steatosis"
same,therapeutic efficacy,[3],therapeutically effective
